{"source": "patent US9023789B2", "about": "“Amylin analogs and pharmaceutical compositions thereof” (Novo Nordisk A/S, priority 2012, dated 2015)", "key": {"[1]": {"target": "T1, human amylin 3(a) receptor (human calcitonin receptor + RAMP-3) in BHK570 cells (Homo sapiens, UniProt O60896+P30988)", "T1 construct": "expressed in transfected cells", "experiment": "ASSAY (II)a functional assay, human amylin receptor (CRE luciferase)", "assay_type": "cell-based", "conditions": "for EC50: human amylin receptor functional potency, assay (II), read-out: hAmylin-R funct. EC50", "how_it_was_run": "(§1)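 Ligand exposure 3 h at 37 °C, 5% CO2 in DMEM with 10% FBS, 10 mM Hepes pH 7.4. cAMP-driven luciferase read by luminescence after 30 min LucLite at room temperature.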"}, "[2]": {"target": "T2, human calcitonin receptor (Homo sapiens, UniProt P30988)", "T2 construct": "expressed in transfected cells", "T2 sequence (P30988 25-474)": "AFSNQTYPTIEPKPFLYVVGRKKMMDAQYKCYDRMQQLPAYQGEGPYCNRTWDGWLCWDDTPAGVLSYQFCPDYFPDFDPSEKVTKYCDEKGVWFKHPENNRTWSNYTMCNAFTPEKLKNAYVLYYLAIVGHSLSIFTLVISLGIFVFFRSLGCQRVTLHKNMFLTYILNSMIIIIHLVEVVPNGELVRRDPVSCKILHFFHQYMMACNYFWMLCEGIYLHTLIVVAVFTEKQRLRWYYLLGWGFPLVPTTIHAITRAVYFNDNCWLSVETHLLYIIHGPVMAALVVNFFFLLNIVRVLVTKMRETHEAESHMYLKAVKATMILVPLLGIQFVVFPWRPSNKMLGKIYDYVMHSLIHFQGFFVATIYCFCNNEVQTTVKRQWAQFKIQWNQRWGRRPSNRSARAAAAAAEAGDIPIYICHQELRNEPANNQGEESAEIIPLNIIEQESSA", "experiment": "ASSAY (VII) binding to the human calcitonin receptor (SPA, 125I-Calcitonin)", "conditions": "read-out: hCTR bind IC50"}, "[3]": {"target": "T3, human amylin receptor (membranes from Amylin 3(a)/CRE-luc cells) (Homo sapiens, UniProt O60896+P30988)", "T3 construct": "expressed in transfected cells", "T3 sequence (P30988 25-474)": "T2 sequence (P30988 25-474)", "T3 sequence (O60896 24-148 partner)": "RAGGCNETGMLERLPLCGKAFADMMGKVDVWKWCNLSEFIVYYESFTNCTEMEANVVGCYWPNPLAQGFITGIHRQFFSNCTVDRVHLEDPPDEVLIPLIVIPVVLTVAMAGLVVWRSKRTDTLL", "experiment": "ASSAY (V) binding to the human amylin receptor (SPA, 125I-rat amylin)", "conditions": "for IC50: Table 4, read-out: hAmylin-R bind IC50"}, "[4]": {"target": "T4, human calcitonin (a) receptor in BHK570 cells (Homo sapiens, UniProt P30988)", "T4 construct": "expressed in transfected cells", "T4 sequence (P30988 25-474)": "T2 sequence (P30988 25-474)", "experiment": "ASSAY (II)a functional assay, human calcitonin receptor (CRE luciferase)", "assay_type": "cell-based", "conditions": "read-out: hCTR funct. EC50", "how_it_was_run": "as §1"}, "[5]": {"experiment": "ASSAY (IV) determination of solubility", "assay_type": "physicochemical", "how_it_was_run": "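Dissolve polypeptide in water ([…] stock); combine 1:1 with each 100 mM buffer (glycylglycine pH 3.0/4.0/5.0; bistrispropane pH 6.0/6.5/7.0/7.5/8.0); hold 18 hours at room temperature; centrifuge; quantify polypeptide by UPLC.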"}, "[6]": {"conditions": "human functional selectivity: hCTR funct. EC50 / hAmylin-R funct. EC50"}, "[7]": {"conditions": "Table 5, selectivity, hCTR bind IC50 / hAmylin-R bind IC50"}, "[8]": {"conditions": "Table 5a, selectivity, hCTR bind IC50 / hAmylin-R bind IC50"}, "[9]": {"conditions": "Table 5b, selectivity, hCTR bind IC50 / hAmylin-R bind IC50"}, "[10]": {"conditions": "Table 5c, selectivity, hCTR bind IC50 / hAmylin-R bind IC50"}, "[11]": {"conditions": "Table 7, human binding selectivity, included for comparison"}, "[12]": {"conditions": "Table 7a (preferred compounds), human binding selectivity, included for comparison"}, "[13]": {"conditions": "ratio of human calcitonin receptor binding IC50 to human amylin receptor binding IC50"}, "[14]": {"conditions": "bistrispropane buffer, pH 6.5, read-out: Solubility pH 6.5 Concentration"}, "[15]": {"conditions": "bistrispropane buffer, pH 7.5, read-out: Solubility pH 7.5 Concentration"}, "[16]": {"conditions": "bistrispropane buffer, pH 6.0, read-out: Solubility pH 6.0 Concentration"}, "[17]": {"conditions": "bistrispropane buffer, pH 7.0, read-out: Solubility pH 7.0 Concentration"}, "[18]": {"conditions": "bistrispropane buffer, pH 8.0, read-out: Solubility pH 8.0 Concentration"}, "[19]": {"conditions": "glycylglycine buffer, pH 3.0, read-out: Solubility pH 3.0 Concentration"}, "[20]": {"conditions": "glycylglycine buffer, pH 4.0, read-out: Solubility pH 4.0 Concentration"}, "[21]": {"conditions": "glycylglycine buffer, pH 5.0, read-out: Solubility pH 5.0 Concentration"}}, "note": "Read-outs that look alike come from different tables or passages of the source. Numbered stars: 1 amine (or outer) side, 2 acyl side, 3 side chain; on linkers, the order of the positions; unused ones are H or OH. Bridge positions count the residues as written; N and C are the ends. Side chains are listed from the residue outwards. Peptide text beside a SMILES is read from it. * marks the point of attachment. C20 diacid = O=C(O)CCCCCCCCCCCCCCCCCCC(=O)*; γGlu = O=C(O)[C@H](CCC(=O)[*:2])N[*:1];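 on Ratio hCT/hAmylin binding: competition binding of cell membranes (35 ng/µL) mixed with SPA beads in 384-well plates at 40 µL total volume, read by scintillation counting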;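 on hCTR bind IC50: cell membranes (35 ng/µL) combined with SPA beads in 40 µL of pH 7.4 Hepes buffer, 384-well format, signal counted on a TopCounter instrument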"}
{"compound": "CC(C)C[C@H](NC(=O)[C@H](CCCNC(=N)N)NC(=O)[C@H](CCC(N)=O)NC(=O)[C@@H](NC(=O)[C@H](C)NC(=O)[C@@H]1CSSC[C@H](NC(=O)[C@@H](N)CCCCNC(=O)CC[C@H](NC(=O)CC[C@H](NC(=O)CCCCCCCCCCCCCCCCCCC(=O)O)C(=O)O)C(=O)O)C(=O)N[C@@H](CC(N)=O)C(=O)N[C@@H]([C@@H](C)O)C(=O)N[C@@H](C)C(=O)N[C@@H]([C@@H](C)O)C(=O)N1)[C@@H](C)O)C(=O)N[C@@H](C)C(=O)N[C@@H](CC(=O)O)C(=O)N[C@@H](Cc1ccccc1)C(=O)N[C@@H](CC(C)C)C(=O)N[C@@H](CCCNC(=N)N)C(=O)N[C@@H](Cc1c[nH]cn1)C(=O)N[C@@H](CO)C(=O)N[C@@H](CO)C(=O)N1CCC[C@H]1C(=O)N[C@@H](CC(N)=O)C(=O)N[C@@H](Cc1ccccc1)C(=O)NCC(=O)N[C@@H](C)C(=O)N1CCC[C@H]1C(=O)N[C@@H](CC(C)C)C(=O)N[C@@H](CO)C(=O)N[C@@H](CO)C(=O)N[C@H](C(=O)N[C@@H](CC(N)=O)C(=O)N[C@H](C(=O)NCC(=O)N[C@@H](CO)C(=O)N[C@@H](CC(=O)O)C(=O)N[C@H](C(=O)N[C@@H](Cc1ccc(O)cc1)C(N)=O)[C@@H](C)O)C(C)C)[C@@H](C)O", "note": "[Example 1] (H-K([γGlu-γGlu-C20 diacid])CNTATCATQRLADFLRHSSPNFGAPLSSTNVGSDTY-NH2; disulfide 2-7)", "values": [{"measurement": "Ratio hCT/hAmylin funct.", "setting": "[1]; hCTR funct. EC50 over hAmylin-R funct. EC50", "value": 12.0}, {"measurement": "EC50", "setting": "[1]", "value": 0.224, "unit": "nM"}, {"measurement": "Ratio hCT/hAmylin funct.", "setting": "[1]; [6]", "value": 12.0}, {"measurement": "IC50", "setting": "[2]", "value": 32.5, "unit": "nM"}, {"measurement": "IC50", "setting": "[3]", "value": 1.18, "unit": "nM"}, {"measurement": "Ratio hCT/hAmylin binding", "setting": "[3]; [7]", "value": 27.6}, {"measurement": "Ratio hCT/hAmylin binding", "setting": "[3]; [8]", "value": 27.6}, {"measurement": "Ratio hCT/hAmylin binding", "setting": "[3]; [9]", "value": 27.6}, {"measurement": "Ratio hCT/hAmylin binding", "setting": "[3]; [10]", "value": 27.6}, {"measurement": "Ratio hCT/hAmylin binding", "setting": "[3]; [11]", "value": 27.6}, {"measurement": "Ratio hCT/hAmylin binding", "setting": "[3]; [12]", "value": 27.6}, {"measurement": "Ratio hCT/hAmylin binding", "setting": "[3]; [13]", "value": 27.6}, {"measurement": "EC50", "setting": "[4]", "value": 2.7, "unit": "nM"}, {"measurement": "solubility at 18 h", "setting": "[5]; [14]", "value": "≥ 200", "unit": "µM"}, {"measurement": "solubility at 18 h", "setting": "[5]; [15]", "value": "≥ 200", "unit": "µM"}, {"measurement": "solubility at 18 h", "setting": "[5]; [16]", "value": "≥ 200", "unit": "µM"}, {"measurement": "solubility at 18 h", "setting": "[5]; [17]", "value": "≥ 200", "unit": "µM"}, {"measurement": "solubility at 18 h", "setting": "[5]; [18]", "value": "≥ 200", "unit": "µM"}, {"measurement": "solubility at 18 h", "setting": "[5]; [19]", "value": "≥ 200", "unit": "µM"}, {"measurement": "solubility at 18 h", "setting": "[5]; [20]", "value": "≥ 200", "unit": "µM"}, {"measurement": "solubility at 18 h", "setting": "[5]; [21]", "value": 172, "unit": "µM"}]}
{"compound": "CC[C@H](C)[C@H](NC(=O)[C@H](C)NC(=O)CNC(=O)[C@H](Cc1ccccc1)NC(=O)[C@H](CC(N)=O)NC(=O)[C@@H]1CCCN1C(=O)[C@H](CO)NC(=O)[C@H](CO)NC(=O)[C@H](Cc1c[nH]cn1)NC(=O)[C@H](CCCNC(=N)N)NC(=O)[C@H](CC(C)C)NC(=O)[C@H](Cc1ccccc1)NC(=O)[C@H](CC(N)=O)NC(=O)[C@H](C)NC(=O)[C@H](CC(C)C)NC(=O)[C@H](CCCNC(=N)N)NC(=O)[C@H](CCC(N)=O)NC(=O)[C@@H](NC(=O)[C@H](C)NC(=O)[C@@H]1CSSC[C@H](NC(=O)[C@@H](N)CCCCNC(=O)COCCOCCNC(=O)CCCCCCCCCCCCCCCCCCC(=O)O)C(=O)N[C@@H](CC(N)=O)C(=O)N[C@@H]([C@@H](C)O)C(=O)N[C@@H](C)C(=O)N[C@@H]([C@@H](C)O)C(=O)N1)[C@@H](C)O)C(=O)N1CCC[C@H]1C(=O)N[C@@H](CO)C(=O)N[C@@H](CO)C(=O)N[C@H](C(=O)N[C@@H](CC(N)=O)C(=O)N[C@H](C(=O)NCC(=O)N[C@@H](CO)C(=O)N[C@@H](CC(N)=O)C(=O)N[C@H](C(=O)N[C@@H](Cc1ccc(O)cc1)C(N)=O)[C@@H](C)O)C(C)C)[C@@H](C)O", "note": "[Example 43]", "values": [{"measurement": "Ratio hCT/hAmylin funct.", "setting": "[1]; hCTR funct. EC50 divided by hAmylin-R funct. EC50", "value": 6.5}, {"measurement": "EC50", "setting": "[1]", "value": 0.141, "unit": "nM"}, {"measurement": "Ratio hCT/hAmylin funct.", "setting": "[1]; [6]", "value": 6.5}, {"measurement": "IC50", "setting": "[2]", "value": 2.64, "unit": "nM"}, {"measurement": "IC50", "setting": "[3]", "value": 0.076, "unit": "nM"}, {"measurement": "Ratio hCT/hAmylin binding", "setting": "[3]; [7]", "value": 34.7}, {"measurement": "Ratio hCT/hAmylin binding", "setting": "[3]; [8]", "value": 34.7}, {"measurement": "Ratio hCT/hAmylin binding", "setting": "[3]; [9]", "value": 34.7}, {"measurement": "Ratio hCT/hAmylin binding", "setting": "[3]; [10]", "value": 34.7}, {"measurement": "Ratio hCT/hAmylin binding", "setting": "[3]; [11]", "value": 34.7}, {"measurement": "Ratio hCT/hAmylin binding", "setting": "[3]; [12]", "value": 34.7}, {"measurement": "Ratio hCT/hAmylin binding", "setting": "[3]; [13]", "value": 34.7}, {"measurement": "EC50", "setting": "[4]", "value": 0.92, "unit": "nM"}, {"measurement": "solubility at 18 h", "setting": "[5]; [14]", "value": "≥ 200", "unit": "µM"}, {"measurement": "solubility at 18 h", "setting": "[5]; [15]", "value": "≥ 200", "unit": "µM"}, {"measurement": "solubility at 18 h", "setting": "[5]; [16]", "value": "≥ 200", "unit": "µM"}, {"measurement": "solubility at 18 h", "setting": "[5]; [17]", "value": "≥ 200", "unit": "µM"}, {"measurement": "solubility at 18 h", "setting": "[5]; [18]", "value": "≥ 200", "unit": "µM"}, {"measurement": "solubility at 18 h", "setting": "[5]; [19]", "value": "≥ 200", "unit": "µM"}, {"measurement": "solubility at 18 h", "setting": "[5]; [20]", "value": "≥ 200", "unit": "µM"}, {"measurement": "solubility at 18 h", "setting": "[5]; [21]", "value": "≥ 200", "unit": "µM"}]}
